Measured values reported in patent US4835253A, “Specific inhibitors of tissue kallikrein” (The University Hospital, priority 1987, dated 1989).
Values joined by “and” are separate entries in the source; they are usually repeats but may differ in a detail not shown here. Equal entries are not always repeated. Non-standard residues stand in square brackets, D forms with d. Residues, ends and D or L forms follow the SMILES beside them. *: point of attachment. Cha = N[C@@H](CC1CCCCC1)C(=O)O; dChg = N[C@@H](C(=O)O)C1CCCCC1; dPhg = N[C@@H](C(=O)O)c1ccccc1; pNA = O=[N+]([O-])c1ccc(N*)cc1; Chg = N[C@H](C(=O)O)C1CCCCC1

target: T1, Human urinary kallikrein (Homo sapiens, UniProt P06870); assay: KM determination: hydrolysis of substrate analogues by HUK (HPLC, scintillation counting); format: biochemical; settings: hydrolysis by HUK; kininogen = 1.0
T1 construct: Human urinary kallikrein (hereinafter "HUK") was highly purified using a modification of published methods; from tissue; host or cells: human urine
Procedure: (§1) Human urinary kallikrein (hereinafter "HUK") was highly purified using a modification of published methods that employ ultrafiltration, aprotinin-CH-sepharose affinity chromatography, and Sephadex G-100 gel filtration [ole-MoiYoi et al., Proc. Natl. Acad. Sci. USA 76: 3121-3125 (1979)]. […] The pH of each fraction was determined immediately upon elution, and the fraction was neutralized by addition of 2.0 ml of 2M Tris-HCL buffer (pH 8.0).
KM Determination: Hydrolysis of the substrate analogue inhibitors by HUK was measured by combining the test inhibitor at different concentrations on either side of the KM value with the enzyme at pH 9.0 for thirty minutes at 37 C. The cleavage products were separated from the starting material in the digest by HPLC on a Beckman octadecylsilane (ODS) column (1×25 cm) using a thirty minute gradient of from 0-70% CH3 CN in triethylammonium phosphate buffer (pH 7.0). The starting materials and reaction products were completely resolved under these conditions. Absorbance of the HPLC effluent was monitored at 220 nm. Individual fractions were collected and the amount of peptide degradation products was quantitated by counting in a liquid scintillation counter. Samples containing individual inhibitors were incubated without HUK and solvent blanks were also chromatographed and analyzed in the same way.
For test purposes, in these HUA cleavage studies, individual peptide sequences were synthesized, purified, and characterized as previously described herein. For these cleavage studies, doubly labelled peptides were prepared using [^3 H]-valine and […] respectively. In addition, 6.0N HCL-dioxane was used for removal of tert-butoxycarbonyl protecting groups and 90% hydrogen fluoride/10% anisole (volume/volume) for global deprotection on completion of the synthesis. After extraction and gel filtration on Sephadex G-15, final purification was completed by isocratic elution from a synchrom RP-P column (2.1×25 cm) with CH3 CN--H2 O (8 ml/min). The resultant peptides were deemed to be homogeneous by amino acid analysis; high performance liquid chromatography; thin layer chromatography; and A230 /A260 ratio analysis. […]

T1 sequence (P06870 25-262): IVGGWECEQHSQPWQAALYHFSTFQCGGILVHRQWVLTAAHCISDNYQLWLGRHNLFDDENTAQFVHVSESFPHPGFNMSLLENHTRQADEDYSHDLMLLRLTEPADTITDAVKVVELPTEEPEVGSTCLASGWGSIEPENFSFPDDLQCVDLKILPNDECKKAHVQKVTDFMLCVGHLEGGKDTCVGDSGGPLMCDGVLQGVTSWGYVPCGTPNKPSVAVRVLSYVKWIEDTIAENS

Row | RELATIVE SPECIFICITY | SMILES
1 | 4.2 | CC(=O)N[C@@H](Cc1ccccc1)C(=O)N[C@@H](CCCNC(=N)N)C(=O)N[C@@H](CO)C(=O)N[C@H](C(=O)N[C@@H](CCC(N)=O)C(N)=O)C(C)C [KKI-4, Ac--Phe--Arg--Ser--Val--Gln--NH2, reference compound] (Ac-FRSVQ-NH2)
2 | 3.2 | CC(=O)N1CCC[C@H]1C(=O)N[C@@H](Cc1ccccc1)C(=O)N[C@@H](CCCNC(=N)N)C(=O)N[C@@H](CO)C(=O)N[C@H](C(=O)N[C@@H](CCC(N)=O)C(N)=O)C(C)C [KKI-5, Ac--Pro--Phe--Arg--Ser--Val--Gln--NH2, reference compound] (Ac-PFRSVQ-NH2)
3 | 45.4 | CC(=O)N[C@@H](CO)C(=O)N1CCC[C@H]1C(=O)N[C@@H](Cc1ccccc1)C(=O)N[C@@H](CCCNC(=N)N)C(=O)N[C@@H](CO)C(=O)N[C@H](C(=O)N[C@@H](CCC(N)=O)C(N)=O)C(C)C [KKI-6, Ac--Ser--Pro--Phe--Arg--Ser--Val--Gln--NH2, reference compound] (Ac-SPFRSVQ-NH2)

target: T1, Human urinary kallikrein; assay: IC50 of tripeptide 4-nitroanilides against HUK cleavage of S-2266; format: biochemical; settings: S-2266, 4.0 ng HUK, 37 C, pH 9.0
Description: An evaluation of other possible peptide sequences and their potential effect as substrate analogue inhibitors specifically of tissue kallikrein was undertaken using chromogenic substrates comprising alternate series of tripeptide 4-nitroanilides using previously described methods [Amundsen et al., "Methods For The Determination Of Glandular Kallikrein By Means Of A Chromogenic Tripeptide Substrate," in Kinins-II. Part A. Plenum Press, 1979, pages 83-95]. This methodology relies on the capacity of HUK to cleave p-nitroaniline from specifically synthesized tripeptide 4-nitroanilines. Controls for this experimental series included S-2266 comprising D-Val-Leu-Arg-4NA; S-2444 comprising D-Glu-Gly-Arg-4NA; and S-2302 comprising D-Pro-Phe-Arg-4NA respectively. The 50% inhibitory concentration (IC50) values for each synthesized tripeptide 4-nitroanilide was determined at 37 C. at pH 9.0 using the specific kallikrein substrates S-2266 (Kabi, Helena Laboratories, Beaumont, Tex.). 4.0 nanograms (hereinafter "ng") of HUK were used in each sample. Blanks lacking S-2266 were run in parallel to correct for hydrolysis of all samples. In all cases, the amount of 4-nitroaniline generated from each tripeptide was less than 10% of that observed for the hydrolysis of S-2266.

Row | IC50 [µM] | SMILES
4 | 7.4 | N=C(N)NCCC[C@H](NC(=O)[C@H](CC1CCCCC1)NC(=O)[C@H](N)c1ccccc1)C(=O)Nc1ccc([N+](=O)[O-])cc1 [D-0Gly--Cha--Arg--4NA] (H-[dPhg]-[Cha]-Arg-pNA)
5 | > 200 | NCCCC[C@H](NC(=O)[C@H](CC1CCCCC1)NC(=O)[C@H](N)c1ccccc1)C(=O)Nc1ccc([N+](=O)[O-])cc1 [D-0Gly--Cha--Lys--4NA] (H-[dPhg]-[Cha]-Lys-pNA)
6 | 150 | NCCCC[C@H](NC(=O)[C@H](CC1CCCCC1)NC(=O)[C@H](N)C1CCCCC1)C(=O)Nc1ccc([N+](=O)[O-])cc1 [D-Chg--Cha--Lys--4NA] (H-[dChg]-[Cha]-Lys-pNA)
7 | 3.7 | N=C(N)NCCC[C@H](NC(=O)[C@H](Cc1ccccc1)NC(=O)[C@H](N)C1CCCCC1)C(=O)Nc1ccc([N+](=O)[O-])cc1 [D-Chg--Phe--Arg--4NA] (H-[dChg]-Phe-Arg-pNA)
8 | 11.5 | N=C(N)NCCC[C@H](NC(=O)[C@H](CC1CCCCC1)NC(=O)[C@@H](N)C1CCCCC1)C(=O)Nc1ccc([N+](=O)[O-])cc1 [L-Chg--Cha--Arg--4NA] (H-[Chg]-[Cha]-Arg-pNA)
9 | 18.7 | CC(C)C[C@H](NC(=O)[C@@H](N)C1CCCCC1)C(=O)N[C@@H](CCCNC(=N)N)C(=O)Nc1ccc([N+](=O)[O-])cc1 [L-Chg--Leu--Arg--4NA] (H-[Chg]-Leu-Arg-pNA)
10 | 10.5 | CC[C@H](C)[C@H](N)C(=O)N[C@@H](CC1CCCCC1)C(=O)N[C@@H](CCCNC(=N)N)C(=O)Nc1ccc([N+](=O)[O-])cc1 [L-Ile--Cha--Arg--4NA] (H-Ile-[Cha]-Arg-pNA)

target: T1, Human urinary kallikrein; assay: KI determination: inhibition of HUK cleavage of chromogenic substrate S-2266; format: biochemical; settings: HUK, substrate S-2266, pH 9.0, 37 C; read-out: KI
Procedure: as §1
KI Determinations: KI measurements were performed using a HP8450A diode array spectrophotometer (Hewlett Packard; Palo Alto, Calif.) attached to a Model 216 computer using the multi-component assay program modified to allow simultaneous determination of reaction velocity in four samples. Dixon plots were used to data reduction and for calculation of […]. […] Inhibition of biologically active kinin from LMW-kininogen was done at pH 7.7 and 37 C.
Procedurally, the KI values for the preliminary analogue inhibitors reported previously [Okunishi et al., Hypertension 7 (Suppl. I): I-72-I-75 (1985)] were determined by adding the chromogenic substrate S-2266 comprising D-Val-Leu-Arg-4-nitroaniline to a mixture of the analogue inhibitor and the HUK.
Initially, the inhibitor constant (KI) for each of these novel inhibitor compositions was determined using purified HUK and the tripeptide nitroanilide, S-2266. The ability to inhibit hydrolysis of the S-2266 substrate was performed in 50 mM tris-HCL buffer (pH 9.0) at 37 C. Subsequently, the ability of these novel inhibitors to inhibit human plasma kallikrein and bovine pancreatic trypsin were similarly examined using the specific substrates H-D-Pro-Phe-Arg-p-nitroanilide (S-2302) and Glu-Gly-Arg-p-nitroanilide (S-2444) respectively. The degradation products of each series was purified by HPLC and quantified by liquid scintillation counting as previously described.

Row | Ki | SMILES
11 | 35 µM | CC(=O)N[C@@H](Cc1ccccc1)C(=O)N[C@@H](CCCN=C(N)N)C(=O)N[C@@H](CO)C(=O)N[C@H](C(=O)N[C@@H](CCC(N)=O)C(N)=O)C(C)C [KKI-4, Ac--Phe--Arg--Ser--Val--Gln--NH2, reference compound] (Ac-FRSVQ-NH2)
12 | 156 µM and 136 µM | CC(=O)N1CCC[C@H]1C(=O)N[C@@H](Cc1ccccc1)C(=O)N[C@@H](CCCNC(=N)N)C(=O)N[C@@H](CO)C(=O)N[C@H](C(=O)N[C@@H](CCC(N)=O)C(N)=O)C(C)C [KKI-5, Ac--Pro--Phe--Arg--Ser--Val--Gln--NH2, reference compound] (Ac-PFRSVQ-NH2)
13 | 73 µM | CC(=O)N[C@@H](CO)C(=O)N1CCC[C@H]1C(=O)N[C@@H](Cc1ccccc1)C(=O)N[C@@H](CCCNC(=N)N)C(=O)N[C@@H](CO)C(=O)N[C@H](C(=O)N[C@@H](CCC(N)=O)C(N)=O)C(C)C [KKI-6, Ac--Ser--Pro--Phe--Arg--Ser--Val--Gln--NH2, reference compound] (Ac-SPFRSVQ-NH2)
